Results published in publication PMC6406907, “A H2AX–CARP-1 Interaction Regulates Apoptosis Signaling Following DNA Damage” (Cancers, 2019).
No end group written: not given here. HA = not defined here

System: γH2AX
Assay: Confocal immunofluorescence of γH2AX / peptide, MDA-MB-468
Type: cell-based, human
Description: Cells were plated onto chamber slides one day before treatment. Following treatment of cells with respective compounds, the adherent cells were fixed with 5% formaldehyde for 10 min and then washed with phosphate buffered saline (PBS). Samples were blocked (0.5% NP-40, 5% milk powder, 1% fetal bovine serum) for 30 min. After a single wash with PBS, cells were incubated with primary antibodies for 45 to 60 min. Coverslips were washed with PBS and then incubated with secondary antibodies for another 45 to 60 min. They were then washed with PBS and mounted with 0.1 μg/mL 4′,6′-diamidino-2-phenylindole (DAPI) containing mounting solution. For confocal imaging, cells were first fixed with PFA, then stained for CARP-1 by myc-tag antibodies (green), γH2AX antibodies (red), and DAPI (blue) for nuclear staining. Immunofluorescent or confocal images were taken using a Zeiss LSM 510 Meta NLO (63×).
Our next objective was to analyze the biological significance of the CARP-1–H2AX interaction in cells. […] Next, we measured activation of caspases as an apoptosis readout in cells expressing myc-His-tagged wild-type CARP-1 or CARP-1 (Δ600–650) proteins that were either untreated or treated with Adriamycin or CFM compounds as detailed in Section 2. We utilized a lower, 4–5 μM dose of Adriamycin or CFM compounds because a 10 μM Adriamycin dose caused interference in signal output/readout in this particular assay, likely due to background fluorescence that is emitted by higher dose of Adriamycin. Although Adriamycin has a maximum excitation and emission wavelength of 470 and 560 nm, respectively, we found significant fluorescence emission in cells treated with 10 μM Adriamycin at a 380-nm excitation wavelength. Moreover, since caspase activation precedes apoptotic cell death, we utilized a lower dose of Adriamycin to permit a robust measurement of optimal caspase activation in cells undergoing moderate apoptosis with lower/minimal interference by Adriamycin-induced fluorescence signals. […]

**Q.** “EGFP-H2AX (1–35): EGFP-tagged fusion protein stably expressed in MDA-MB-468 and HeLa sublines (MSGRGKTGGKARAKAKSRSSRAGLQFPVGRVHRLL; also: EGFP fusion, end not given here; UniProt P16104 1-35, looked up, fragment)” was tested. Which “nuclear presence of γH2AX” value (MDA-MB-468 expressing EGFP-H2AX (1–35) vs EGFP, Adriamycin-treated) did it give?
**A.** Its value is “increased nuclear presence of γH2AX”.

**Q.** Which “co-localization with γH2AX” value (6 μg/mL peptide, 72 h, confocal, insets top and middle rows of Figure 8C) does the source give for “His-TAT-HA-CARP-1 (636–650): His-TAT-HA-tagged CARP-1 (636–650) peptide, >95% purity, commercially synthesized ({His-TAT-HA}-PKTMKVNDLRKELES; reading uncertain; UniProt Q8IX12 636-650, looked up, fragment)” here?
**A.** Its value is “co-localization”.

**Q.** What about the “presence of γH2AX in Adriamycin-treated cells” value (MDA-MB-468 pre-incubated with 6 μg/mL peptide, 72 h, then Adriamycin, vs no peptide or scrambled peptide) of the same substance?
**A.** The value was “increased presence of γH2AX”.
